Data: paper PMC8584173, “The Cytotoxic Effect of Copper (II) Complexes with Halogenated 1,3-Disubstituted Arylthioureas on Cancer and Bacterial Cells” (International Journal of Molecular Sciences, 2021)

What was measured:
[1] = system: SW480 (human primary colon cancer); test: MTT cytotoxicity assay, SW480; assay type: cell-based; conditions: SW480, 72 h
Protocol: (§1) The human primary (SW480), metastatic (SW620) colon cancer, metastatic prostate cancer (PC3) and human immortal keratinocyte (HaCaT) cell lines were purchased from the American Type Culture Collection (ATCC, Rockville, USA). The cells were cultured in medium according to protocols (MEM for SW480 and SW620, RPMI 1640 for PC3 and DMEM for HaCaT cells) supplemented with 10% fetal bovine serum (FBS), penicillin (100 U/mL) and streptomycin (100 μg/mL) and cultured in 37 °C/ 5% CO2 humidified incubator. The cells were cultured until appropriate confluence was achieved (80–90%). Next, they were harvested by treatment with 0.25% trypsin (Gibco Life Technologies, USA) and used for studies.
(§2) Cells without studied compounds in medium were used as a control.
(§3) The cell viability was assessed by determination of MTT salt (3-(4,5-dimethylthiazol-2-yl)-2,5-diphenyltetrazolium bromide) conversion by mitochondrial dehydrogenase. MTT assay was performed as previously described. Experiments were repeated three times. Cell viability was presented as a percentage of MTT reduction in the treated cells versus the control cells. Number of viable cells cultured without studied compounds was assumed to be 100%. Decreased relative MTT level means decreased cell viability. Thiourea complexes with the highest cytotoxic potential assessed by MTT determination (with the lowest IC50) were chosen for subsequent assessments of cytotoxicity mechanisms.

[2] = system: HaCaT (human immortal keratinocyte cell line); test: MTT cytotoxicity assay, HaCaT; assay type: cell-based; conditions: HaCaT normal cells, 72 h
Protocol: as §1, §2, §3

[3] = system: HaCaT cells; test: LDH release assay, HaCaT; assay type: cell-based, human; conditions: doxorubicin (1.5 μM stated for the cancer lines)
Protocol: The presence of lactate dehydrogenase (LDH) in culture medium indicates a disturbance of the integrity of the cellular membrane. The LDH activity was performed after 72 h incubation of cells (1 × 10^4 cells per well) in 96-well plates with selected compounds according to manufacturer’s protocol (Roche Diagnostics, Germany), as was described by Chrzanowska et al.. Compound mediated cytotoxicity was determined using equation: ((A test sample−A low control)/ (A high control−A low control)) × 100% (A-absorbance), where “low control” means cells in medium with 2% FBS without tested compounds, and “high control” means cells incubated in medium with 2% FBS and 1% Triton X-100 (100% LDH release). The cytotoxicity was expressed as percentage of LDH release as compared with the maximum release of LDH from Triton-X-100-treated cells.

[4] = system: SW480 cells; test: Annexin V-FITC/PI flow cytometry, SW480; assay type: cell-based, human; conditions: SW480, 72 h
Protocol: (§4) The cells were cultured and harvested under the conditions described in the cell culture section. […] The effect of these compounds on the process of early and late apoptosis and necrosis was determined, as described previously, by dual staining with annexin V-FITC and propidium iodide according to manufacturer’s protocol (Becton Dickinson). The cells that were annexin V-FITC positive and PI-negative were identified as early apoptotic and annexin V-FITC and PI-positive as late apoptotic or necrotic.

[5] = system: SW620 cells; test: Annexin V-FITC/PI flow cytometry, SW620; assay type: cell-based, human; conditions: SW620, 72 h
Protocol: as §4

[6] = system: PC3 cells; test: Annexin V-FITC/PI flow cytometry, PC3; assay type: cell-based, human; conditions: PC3, 72 h
Protocol: as §4

[7] = system: HaCaT cells; test: Annexin V-FITC/PI flow cytometry, HaCaT; assay type: cell-based, human; conditions: 72 h
Protocol: as §4

[8] = system: interleukin-6 (IL-6); test: IL-6 level assay (ELISA); assay type: cell-based, human; conditions: PC3, IC50 dose, 72 h
Protocol: IL-6 concentration at all studied cancer cells and normal HaCaT cell lines was measured by ELISA kit (Diaclon SAS Besancon Cedex, France). […] IL-6 in cell culture supernatant was measured using enzyme-linked immunosorbent assay in accordance with the manufacturer’s protocol.

[9] = system: HaCaT cells; set-up: method as in ref 1S; conditions: also printed as 2 mM; ref 1S; cited from earlier work
[10] = system: colon cancer cells; set-up: method as in ref 2S; conditions: at 100 μM, ref 2S; cited from earlier work
[11] = system: PC3 cells; set-up: method as in ref 3S; conditions: 200 μM, ref 3S; cited from earlier work
[12] = system: PANC-1; set-up: method as in ref 3S; conditions: PANC-1, 100 μM; ref 3S; cited from earlier work
[13] = system: SW620 (human metastatic colon cancer); test: MTT cytotoxicity assay, SW620; assay type: cell-based; conditions: SW620, 72 h
Protocol: as §1, §2
as §3, with “viability.” for “viability. Thiourea complexes with the highest cytotoxic potential assessed by MTT determination (with the lowest IC50) were chosen for subsequent assessments of cytotoxicity mechanisms.”

[14] = system: PC3 (human metastatic prostate cancer); test: MTT cytotoxicity assay, PC3; assay type: cell-based; conditions: PC3, 72 h, MTT
Protocol: as §1, §2, §3

[15] = system: all strains; test: MIC, all strains; assay type: cell-based
Protocol: The antimicrobial activity of the compounds was tested on Gram-positive bacteria (Staphylococcus aureus NCTC 4163, Staphylococcus aureus ATCC 25923, Staphylococcus aureus ATCC 6538, Staphylococcus aureus ATCC 29213, Staphylococcus epidermidis ATCC 12228, Staphylococcus epidermidis ATCC 35984), Gram-negative rods (Escherichia coli ATCC 10538, Escherichia coli ATCC 25922, Pseudomonas aeruginosa ATCC 15442, Pseudomonas aeruginosa ATCC 27863) and yeasts (Candida albicans ATCC 10231, Candida albicans ATCC 90028, Candida parapsilosis ATCC 22019). Hospital methicillin-resistant strains of Staphylococcus aureus and Staphylococcus epidermidis were obtained from the collection of the Department of Pharmaceutical Microbiology, Medical University of Warsaw, Poland.
Antifungal activities were assessed using Mueller–Hinton agar + 2% glucose and 0.5 µg/mL methylene blue dye medium. Sterile filter paper discs (9 mm diameter, Whatman Number 3 chromatography paper) were dripped with tested compound solutions (in dimethylsulfoxide, DMSO) to load 400 μg of a given compound per disc. […] The results (diameter of the growth inhibition zone) were read after 18 h of incubation at 35 °C. […] Minimal inhibitory concentrations (the lowest concentration of a tested agent that prevents visible growth of a microorganism) were read after 18 h (bacteria) or 24 h (yeasts) of incubation at 35 °C.

[16] = system: clinical methicillin-resistant strains of S. aureus (MRSA) and S. epidermidis (MRSE); conditions: cited from earlier work
[17] = system: standard bacterial strains; set-up: method as in PMID 29499458; conditions: cited from earlier work
[18] = system: HaCaT cell; set-up: method as in PMID 30248936; conditions: at the concentration 8 µM; cited from earlier work

COc1cccc2c1C(=O)c1c(O)c3c(c(O)c1C2=O)C[C@@](O)(C(=O)CO)C[C@@H]3O[C@H]1C[C@H](N)[C@H](O)[C@H](C)O1 [Doxorubicin, reference compound]
IC50 ([1]; Homo sapiens): 0.75 ± 0.1 µM | IC50 ([2]; Homo sapiens): 0.29 ± 0.1 µM | LDH release [3]: 80% | cells at the necrotic stage [4]: 86% | cells at the necrotic stage [5]: 51% | cells at the necrotic stage [6]: 50% | late apoptosis, % of cells [6]: 23% | cells at the necrotic stage [7]: 42% | reduction of IL-6 secretion, times [8]: almost twofold

CN(C)C=O [DMF, dimethylformamide]
concentration at which DMF influenced HaCaT cells [9]: 0.14 mg/mL | LDH release [10]: not increase LDH release | apoptosis [11]: 85% | apoptosis [12]: 30%

[Cl][Cu][Cl] [CuCl2, copper (II) chloride, reference compound]
IC50 [1]: 109 ± 7.6 µM | IC50 [13]: 96.3 ± 5.2 µM | IC50 [14]: 106 ± 6.3 µM | IC50 [2]: 114 ± 4.8 µM | IC50 ([2]; listed as copper (II) chloride): > 100 µM | MIC [15]: ≥ 128 µg/mL

N.N.[Cl][Pt][Cl] [Cisplatin, reference compound]
IC50 [1]: 10.4 ± 0.9 µM | IC50 [13]: 6.7 ± 1.1 µM | IC50 [2]: 6.3 ± 0.7 µM

copper (II) complex of 1-(3-chloro-4-fluorophenyl)-3-[3-trifluoromethyl)phenylthiourea
MIC [16]: 4 to 8 µg/mL | MIC [17]: 4 to 256 µg/mL

O=[N+]([O-])c1cc(NC(=S)Nc2ccc(Cl)c(Cl)c2)ccc1Cl [Compound L5, 1-(4-chloro-3-nitrophenyl)-3-(3,4-dichlorophenyl)thiourea]
decrease in HaCaT cell viability [18]: approximately 20%
